What all share (format): cell-based
The target in assay [1] is T1, ZBTB7A (Homo sapiens, UniProt O95365+Q96SW2).
T1 construct: HUDEP-2 cells engineered to express a HiBiT tag in either the WIZ (Widely interspaced zinc finger) or ZBTB7A
As to the kind of experiment: HUDEP-2 ZBTB7A HiBiT degradation assay. The following applies: HiBiT-tagged ZBTB7A degradation in HUDEP-2 cells, 24 hours of treatment; read-out: ZBTB7A EC50. The procedure: (§1) WIZ Assay and ZBTB7A EC50 Assays. The HiBiT degradation assays for WIZ and ZBTB7A in HUDEP-2 cells were performed as described below. HUDEP-2 cells engineered to express a HiBiT tag in either the WIZ (Widely interspaced zinc finger) or ZBTB7A (Zinc Finger And BTB Domain Containing 7A) proteins were maintained in low attachment flasks in StemSpan SFEM II media supplemented with Penicillin-Streptomycin (50 U/mL), rhSCF (50 ng/mL), rhEPO (3 IU/mL), dexamethasone (0.4 μg/mL) and doxycycline (1 μg/mL). Prior to start of the assay, cell count and viability were measured by trypan blue exclusion using the Vi-cell XR cell viability analyzer.
For the HUDEP-2 ZBTB7A HiBiT assay, cell count and viability were measured by trypan blue exclusion using the Vi-cell XR cell viability analyzer and the cells were transferred to a 50 mL conical and centrifuged at 500 g for five minutes. Cells were resuspended in fresh IMDM media supplemented with L-Glutamine (1×), Penicillin-Streptomycin (50 U/mL), holo-transferrin (330 μg/mL), heparin (2 IU/mL), r-human Insulin (10 μg/mL), rhEPO (3 IU/mL), rhSCF (100 ng/mL)+Dox (1 μg/mL) and 5% human plasma in low attachment flasks, which were placed in a 37° C. incubator with 5% CO2. After 48 hours, cell count and viability were measured by trypan blue exclusion using the Vi-cell XR cell viability analyzer. The HUDEP-2 ZBTB7A cells were transferred to a 50 mL conical, centrifuged at 500 g for five minutes and resuspended at a density of 1.0×10^6 cells/ml in IMDM media supplemented with L-Glutamine (1×), Penicillin-Streptomycin (50 U/mL), holo-transferrin (330 μg/mL), heparin (2 IU/mL), r-human Insulin (10 μg/mL), rhEPO (3 IU/mL), rhSCF (100 ng/mL)+Dox (1 μg/mL) and 5% human plasma. Forty microliters of cell suspension was dispensed into 384-well Low Flange White Flat Bottom Polystyrene TC-treated Microplates containing pre-dispensed compounds, using a VIAFLO 384 liquid hander, and placed in a 37° C. incubator with 5% CO2. […] After 24 hours of treatment, 40 μL Nano-Glo HiBiT Lytic Detection System reagent was dispensed into each well using a VIAFLO 384 liquid hander. Plates were incubated for 25 minutes at room temperature and the luminescence was read as relative luminescent units using the EnVision plate reader. EC50 and Y-min values were calculated using curves calculated from dotmatics software after the normalization to the DMSO control of 10 different concentrations: 10, 3.33, 1.11, 0.37, 0.12, 0.04 0.0137, 0.0046, 0.0015 and […] respectively.

Assay [2] has as its target T2, WIZ (Homo sapiens, UniProt O95785+Q96SW2).
T2 construct: HUDEP-2 cells engineered to express a HiBiT tag in either the WIZ (Widely interspaced zinc finger) or ZBTB7A
Kind of assay: HUDEP-2 WIZ HiBiT degradation assay. The following applies: HiBiT-tagged WIZ degradation in HUDEP-2 cells, 24 hours of treatment; read-out: WIZ EC50. The procedure:
as §1
For the HUDEP-2 WIZ HiBiT assay, cells were transferred to a 50 mL conical and centrifuged at 500 g for five minutes. Cells were resuspended in fresh StemSpan SFEM II media supplemented with Penicillin-Streptomycin (50 U/mL), rhSCF (50 ng/mL), rhEPO (3 IU/mL), dexamethasone (0.4 μg/mL) and doxycycline (1 μg/mL) at a density of 1.0×10^6 cells/ml. Forty microliters of cell suspension was dispensed into 384-well Low Flange White Flat Bottom Polystyrene TC-treated Microplates containing pre-dispensed compounds, using a VIAFLO 384 liquid hander, and placed in a 37° C. incubator with 5% CO2. […] After 24 hours of treatment, 40 μL Nano-Glo HiBiT Lytic Detection System reagent was dispensed into each well using a VIAFLO 384 liquid hander. Plates were incubated for 25 minutes at room temperature and the luminescence was read as relative luminescent units using the EnVision plate reader. EC50 and Y-min values were calculated using curves calculated from dotmatics software after the normalization to the DMSO control of 10 different concentrations: 10, 3.33, 1.11, 0.37, 0.12, 0.04 0.0137, 0.0046, 0.0015 and […] respectively.

Assay [3] concerns HbF. Kind of assay: HbF HiBiT induction assay in HUDEP-2 cells. As to conditions: HUDEP-2 cells with HiBiT tag in HBG1/2, 72 hours of treatment; area under the dose response curve, higher AUC = greater HbF induction. The procedure:
HbF HiBiT induction assay. The HiBiT induction assay for HbF in HUDEP-2 cells was performed as described below. HUDEP-2 cells engineered to express a HiBiT tag in HBG1/2 were maintained at a density of 0.1-1×10^6 cells/ml in StemSpan SFEM II supplemented with 1% penicillin/streptomycin, hSCF (50 ng/mL), erythropoietin (EPO; 3 IU/mL), dexamethasone (DEX; 0.4 μg/mL), and doxycycline hyclate (DOX; 1 μg/mL). The cells were cultured in low adherence flasks, in a humidified incubator, set at 37° C. with 5% CO2. Cell counts and viability were measured by trypan blue exclusion using the Vi-CELL XR cell viability analyzer and the cell growth was consistently maintained in log phase.
Prior to the start of experiments, HbF HiBiT-tagged HUDEP-2 cells were transferred to a 50 mL conical and centrifuged at 500×g for 5 minutes, the supernatant removed, and the pellet washed in 5 mL of 1×PBS. The washed cells were centrifuged again at 500×g for 5 minutes and resuspended in IMDM containing; 1×glutamine, 1×penicillin/streptomycin, holo-transferrin (330 μg/mL), heparin (2 IU/mL), r-human insulin (10 μg/mL), EPO (3 IU/mL), 5% human plasma, hSCF (100 ng/mL) and DOX (1 μg/mL) to a final density of 0.3×10^6 cells/mL. Forty microliters of cell suspension were dispensed into 384-well Low Flange White Flat Bottom Polystyrene TC-treated Microplates containing pre-dispensed compounds, using a VIAFLO 384 liquid hander, and placed in a humidified incubator at 37° C. with 5% CO2. […] After 72 hours of treatment, 40 μL of Nano-Glo HiBiT Lytic Solution (prepared according to manufacturer's instructions) were dispensed into each well using a VIAFLO 384 liquid handler, and the plates were shaken for 20 seconds. Plates were incubated for 20 minutes at room temperature, and the luminescence was read as relative luminescent units using an EnVision plate reader.
Dose response curves were generated, and EC50, Ymax, and then area under the curve (AUC) values were calculated. HbF induction was measured using the calculated area under the curve (AUC) value, with higher AUC values indicative of greater HbF induction relative to lower AUC values.

Consider eleven molecules from patent publication US20250333407A1, “Compounds and Their Use for Treatment of Hemoglobinopathies” (Bristol-Myers Squibb Company, priority 2024, published 2025).

T2 sequence (O95785 whole entry): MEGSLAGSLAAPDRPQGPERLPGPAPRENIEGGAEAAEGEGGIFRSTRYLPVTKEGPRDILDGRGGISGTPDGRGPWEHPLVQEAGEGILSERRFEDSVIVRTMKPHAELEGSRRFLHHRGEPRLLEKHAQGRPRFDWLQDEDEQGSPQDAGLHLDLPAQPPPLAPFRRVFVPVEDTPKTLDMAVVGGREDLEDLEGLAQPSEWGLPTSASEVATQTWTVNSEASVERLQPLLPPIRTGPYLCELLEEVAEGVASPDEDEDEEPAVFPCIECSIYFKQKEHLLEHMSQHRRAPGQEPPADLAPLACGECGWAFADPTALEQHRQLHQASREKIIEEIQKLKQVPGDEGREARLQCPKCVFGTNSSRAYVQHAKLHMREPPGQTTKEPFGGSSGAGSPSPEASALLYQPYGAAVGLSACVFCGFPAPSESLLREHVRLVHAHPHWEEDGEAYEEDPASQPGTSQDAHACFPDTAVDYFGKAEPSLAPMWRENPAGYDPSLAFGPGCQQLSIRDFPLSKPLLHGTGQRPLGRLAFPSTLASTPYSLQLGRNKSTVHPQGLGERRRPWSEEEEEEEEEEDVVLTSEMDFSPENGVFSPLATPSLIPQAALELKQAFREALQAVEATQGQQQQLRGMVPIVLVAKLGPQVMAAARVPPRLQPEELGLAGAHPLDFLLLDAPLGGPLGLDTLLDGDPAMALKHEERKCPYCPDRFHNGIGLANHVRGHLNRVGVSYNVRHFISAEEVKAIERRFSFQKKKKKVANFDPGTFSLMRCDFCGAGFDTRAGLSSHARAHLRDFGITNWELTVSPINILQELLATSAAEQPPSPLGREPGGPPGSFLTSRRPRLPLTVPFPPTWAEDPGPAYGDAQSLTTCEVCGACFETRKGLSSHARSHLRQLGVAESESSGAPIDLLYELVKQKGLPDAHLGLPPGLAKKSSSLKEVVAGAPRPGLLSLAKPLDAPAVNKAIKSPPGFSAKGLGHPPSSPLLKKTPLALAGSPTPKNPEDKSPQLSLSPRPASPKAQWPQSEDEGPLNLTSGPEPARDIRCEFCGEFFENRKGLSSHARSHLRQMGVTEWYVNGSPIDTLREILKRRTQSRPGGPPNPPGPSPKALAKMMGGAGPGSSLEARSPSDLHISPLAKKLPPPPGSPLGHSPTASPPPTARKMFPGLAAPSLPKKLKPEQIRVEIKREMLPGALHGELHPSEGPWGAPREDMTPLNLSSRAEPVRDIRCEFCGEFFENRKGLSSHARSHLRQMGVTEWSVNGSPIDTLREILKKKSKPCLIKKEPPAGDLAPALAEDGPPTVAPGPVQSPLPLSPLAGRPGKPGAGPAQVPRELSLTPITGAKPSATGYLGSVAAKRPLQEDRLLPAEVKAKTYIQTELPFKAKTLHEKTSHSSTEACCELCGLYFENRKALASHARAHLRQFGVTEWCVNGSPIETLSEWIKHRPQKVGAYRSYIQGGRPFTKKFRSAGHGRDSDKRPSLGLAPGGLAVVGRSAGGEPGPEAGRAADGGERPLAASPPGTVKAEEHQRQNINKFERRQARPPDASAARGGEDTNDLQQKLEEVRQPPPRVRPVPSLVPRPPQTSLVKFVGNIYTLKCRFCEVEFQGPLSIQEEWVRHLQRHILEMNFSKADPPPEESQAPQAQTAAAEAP
T2 sequence (Q96SW2 whole entry): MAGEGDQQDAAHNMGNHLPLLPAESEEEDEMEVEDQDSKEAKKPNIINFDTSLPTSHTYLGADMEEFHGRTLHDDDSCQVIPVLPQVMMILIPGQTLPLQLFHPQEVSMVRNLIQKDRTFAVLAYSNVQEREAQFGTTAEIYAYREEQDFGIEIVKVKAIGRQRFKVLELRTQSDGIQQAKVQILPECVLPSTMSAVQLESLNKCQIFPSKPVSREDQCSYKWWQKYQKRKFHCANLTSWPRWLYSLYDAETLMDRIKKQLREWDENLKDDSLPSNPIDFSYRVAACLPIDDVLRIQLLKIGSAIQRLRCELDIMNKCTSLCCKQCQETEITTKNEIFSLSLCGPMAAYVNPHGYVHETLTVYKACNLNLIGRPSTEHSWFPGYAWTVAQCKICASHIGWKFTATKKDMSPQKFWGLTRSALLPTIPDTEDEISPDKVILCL
T2 sequence (Q16531 whole entry partner): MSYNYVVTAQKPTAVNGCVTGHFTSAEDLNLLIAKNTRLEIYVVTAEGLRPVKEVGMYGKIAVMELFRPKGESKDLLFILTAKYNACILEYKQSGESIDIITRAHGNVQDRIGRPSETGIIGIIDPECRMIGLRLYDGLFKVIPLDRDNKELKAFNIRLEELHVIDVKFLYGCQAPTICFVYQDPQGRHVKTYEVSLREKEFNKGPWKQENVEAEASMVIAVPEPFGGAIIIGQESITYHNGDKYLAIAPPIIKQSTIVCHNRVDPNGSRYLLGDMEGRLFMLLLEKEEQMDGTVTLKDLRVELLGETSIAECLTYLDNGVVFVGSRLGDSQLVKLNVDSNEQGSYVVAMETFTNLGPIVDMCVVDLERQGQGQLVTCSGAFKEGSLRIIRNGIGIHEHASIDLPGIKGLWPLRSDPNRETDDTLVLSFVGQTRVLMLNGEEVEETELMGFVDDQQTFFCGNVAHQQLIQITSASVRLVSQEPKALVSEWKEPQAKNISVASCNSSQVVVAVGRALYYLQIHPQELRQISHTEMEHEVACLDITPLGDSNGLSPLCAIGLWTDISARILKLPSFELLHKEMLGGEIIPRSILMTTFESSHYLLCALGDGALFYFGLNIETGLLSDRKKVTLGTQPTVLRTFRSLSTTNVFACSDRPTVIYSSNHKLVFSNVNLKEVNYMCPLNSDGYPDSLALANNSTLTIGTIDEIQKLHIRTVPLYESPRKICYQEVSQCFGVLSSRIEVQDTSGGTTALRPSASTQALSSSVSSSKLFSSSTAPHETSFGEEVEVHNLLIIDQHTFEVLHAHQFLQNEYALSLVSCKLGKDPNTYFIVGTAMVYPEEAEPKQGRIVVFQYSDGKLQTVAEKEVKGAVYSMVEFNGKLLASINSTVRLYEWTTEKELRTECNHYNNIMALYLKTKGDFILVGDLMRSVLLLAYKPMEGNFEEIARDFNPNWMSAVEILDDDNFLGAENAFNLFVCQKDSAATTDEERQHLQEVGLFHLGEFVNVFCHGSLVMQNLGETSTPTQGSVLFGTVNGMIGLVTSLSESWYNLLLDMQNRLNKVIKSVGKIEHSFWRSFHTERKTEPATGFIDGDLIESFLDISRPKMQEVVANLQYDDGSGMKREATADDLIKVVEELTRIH
T1 sequence (O95365 whole entry): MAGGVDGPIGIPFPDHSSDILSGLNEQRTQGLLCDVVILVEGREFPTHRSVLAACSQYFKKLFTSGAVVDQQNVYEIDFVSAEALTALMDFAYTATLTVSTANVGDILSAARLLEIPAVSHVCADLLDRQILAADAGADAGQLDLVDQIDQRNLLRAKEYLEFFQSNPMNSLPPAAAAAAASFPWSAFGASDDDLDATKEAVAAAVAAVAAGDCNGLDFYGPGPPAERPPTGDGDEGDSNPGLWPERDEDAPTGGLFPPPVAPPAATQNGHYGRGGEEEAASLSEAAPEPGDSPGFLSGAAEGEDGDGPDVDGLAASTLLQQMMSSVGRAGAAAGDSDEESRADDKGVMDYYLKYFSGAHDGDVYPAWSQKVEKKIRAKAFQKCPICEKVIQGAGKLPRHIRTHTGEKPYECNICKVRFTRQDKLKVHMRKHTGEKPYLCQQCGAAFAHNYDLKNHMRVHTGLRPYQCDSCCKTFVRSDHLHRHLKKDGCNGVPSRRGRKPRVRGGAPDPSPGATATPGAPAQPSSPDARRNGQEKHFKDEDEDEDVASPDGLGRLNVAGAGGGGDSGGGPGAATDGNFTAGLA
T1 sequence (Q96SW2 whole entry): as the sequence (Q96SW2 whole entry) above
T1 sequence (Q16531 whole entry partner): as the sequence (Q16531 whole entry partner) above

As for `Cc1cc(-c2cc3c(cc2Nc2cccc4c2C(=O)N([C@H]2CCC(=O)NC2=O)C4=O)N(C)C(=O)OC3)ccn1` [Compound 11, (S)-2-(2,6-dioxopiperidin-3-yl)-4-((1-methyl-6-(2-methylpyridin-4-yl)-2-oxo-1,4-dihydro-2H-benzo[d][1,3]oxazin-7-yl)amino)isoindoline-1,3-dione], the values for the DC50 in assay [1] and in assay [2] were 0.017 µM and 0.021 µM, respectively. The “HBF AUC” value in assay [3] is “++ (++ = 100 ≤ AUC < 150)”.
For `Cc1cc(-c2cc3c(cc2Nc2cccc4c2C(=O)N([C@@H]2CCC(=O)NC2=O)C4=O)N(C)C(=O)OC3)ccn1` [Compound 12, (R)-2-(2,6-dioxopiperidin-3-yl)-4-((1-methyl-6-(2-methylpyridin-4-yl)-2-oxo-1,4-dihydro-2H-benzo[d][1,3]oxazin-7-yl)amino)isoindoline-1,3-dione] the same measures were 0.034 µM, 0.037 µM and “+ (+ = 15 ≤ AUC < 100)”.
For `Cc1cc(-c2cc3c(cc2Nc2cccc4c2C(=O)N(C2CCC(=O)NC2=O)C4=O)N(C)C(=O)CO3)cc(F)c1F` (stereo not drawn) [Compound 13, 4-((7-(3,4-difluoro-5-methylphenyl)-4-methyl-3-oxo-3,4-dihydro-2H-benzo[b][1,4]oxazin-6-yl)amino)-2-(2,6-dioxopiperidin-3-yl)isoindoline-1,3-dione] the same measures were 0.038 µM, 0.05 µM and “+ (+ = 15 ≤ AUC < 100)”.
Take `CNc1cc(-c2cc3c(cc2Nc2cccc4c2C(=O)N(C2CCC(=O)NC2=O)C4=O)N(C)C(=O)CO3)ccn1` (stereo not drawn) [Compound 14, 2-(2,6-dioxopiperidin-3-yl)-4-((4-methyl-7-(2-(methylamino)pyridin-4-yl)-3-oxo-3,4-dihydro-2H-benzo[b][1,4]oxazin-6-yl)amino)isoindoline-1,3-dione]: the DC50 was found to be 0.017 µM in assay [1] and 0.012 µM in assay [2]. Besides, the “HBF AUC” value in assay [3] is listed as “+ (+ = 15 ≤ AUC < 100)”.
For `CN(C)c1cc(-c2cc3c(cc2Nc2cccc4c2C(=O)N(C2CCC(=O)NC2=O)C4=O)N(C)C(=O)CO3)ccn1` (stereo not drawn) [Compound 15, 4-((7-(2-(dimethylamino)pyridin-4-yl)-4-methyl-3-oxo-3,4-dihydro-2H-benzo[b][1,4]oxazin-6-yl)amino)-2-(2,6-dioxopiperidin-3-yl)isoindoline-1,3-dione] the same measures were 0.022 µM, 0.007 µM and “+ (+ = 15 ≤ AUC < 100)”.
For `CCOc1cc(-c2cc3c(cc2Nc2cccc4c2C(=O)N(C2CCC(=O)NC2=O)C4=O)N(C)C(=O)CO3)cc(C)n1` (stereo not drawn) [Compound 16, 2-(2,6-dioxopiperidin-3-yl)-4-((7-(2-ethoxy-6-methylpyridin-4-yl)-4-methyl-3-oxo-3,4-dihydro-2H-benzo[b][1,4]oxazin-6-yl)amino)isoindoline-1,3-dione] the same measures were 0.073 µM, 0.032 µM and “+ (+ = 15 ≤ AUC < 100)”.
For `COc1cc(-c2cc3c(cc2Nc2cccc4c2C(=O)N([C@H]2CCC(=O)NC2=O)C4=O)N(C)C(=O)CO3)ccn1` [Compound 17, (S)-2-(2,6-dioxopiperidin-3-yl)-4-((7-(2-methoxypyridin-4-yl)-4-methyl-3-oxo-3,4-dihydro-2H-benzo[b][1,4]oxazin-6-yl)amino)isoindoline-1,3-dione] the same measures were 0.018 µM, 0.013 µM and “+++ (+++ = AUC ≥ 150)”.
With `Cc1cc(-c2cc3c(cc2Nc2cccc4c2C(=O)N([C@H]2CCC(=O)NC2=O)C4=O)N(C)C(=O)CO3)ccn1` [Compound 18, (S)-2-(2,6-dioxopiperidin-3-yl)-4-((4-methyl-7-(2-methylpyridin-4-yl)-3-oxo-3,4-dihydro-2H-benzo[b][1,4]oxazin-6-yl)amino)isoindoline-1,3-dione], the DC50 in assay [1] and in assay [2] was 0.011 µM each time. In addition, in assay [3], the “HBF AUC” value is on record as “+++ (+++ = AUC ≥ 150)”.
In the case of `Cc1cc(-c2cc3c(cc2Nc2cccc4c2C(=O)N(C2CCC(=O)NC2=O)C4=O)N(C)C(=S)CC3)ccn1` (stereo not drawn) [Compound 19, 2-(2,6-dioxopiperidin-3-yl)-4-((1-methyl-6-(2-methylpyridin-4-yl)-2-thioxo-1,2,3,4-tetrahydroquinolin-7-yl)amino)isoindoline-1,3-dione], the values for the DC50 in assay [1] and in assay [2] were 0.021 µM and 0.028 µM, respectively. The “HBF AUC” value in assay [3] was “++ (++ = 100 ≤ AUC < 150)”.
For `CC[C@@H]1Oc2cc(-c3ccnc(C)c3)c(Nc3cccc4c3C(=O)N([C@H]3CCC(=O)NC3=O)C4=O)cc2N(C)C1=O` [Compound 20, 2-((S)-2,6-dioxopiperidin-3-yl)-4-(((S)-2-ethyl-4-methyl-7-(2-methylpyridin-4-yl)-3-oxo-3,4-dihydro-2H-benzo[b][1,4]oxazin-6-yl)amino)isoindoline-1,3-dione] the same measures were 0.012 µM, 0.014 µM and “+ (+ = 15 ≤ AUC < 100)”.
For `Cc1cc(-c2cc3c(cc2Nc2cccc4c2C(=O)N([C@H]2CCC(=O)NC2=O)C4=O)N(C)C(=O)O[C@@H]3C)ccn1` [Compound 21, 4-(((R)-1,4-dimethyl-6-(2-methylpyridin-4-yl)-2-oxo-1,4-dihydro-2H-benzo[d][1,3]oxazin-7-yl)amino)-2-((S)-2,6-dioxopiperidin-3-yl)isoindoline-1,3-dione] the same measures were 0.012 µM, 0.017 µM and “+ (+ = 15 ≤ AUC < 100)”.
